Measured values: US20140127158A1, “COMBINATION THERAPY FOR HEPATITIS C VIRUS INFECTION” (National Health Research Institute, priority 2012, published 2014)
Like-named read-outs stand apart in the source and are kept apart here.

Assays:
[1] = system: HCV1b reporter replicon pRS-Luc-HCV1bRep; assay: Transient HCV1b reporter replicon time course (viral translation vs RNA synthesis); assay type: cell-based, Hepatitis C virus
Experimental: (8) RNA transcription and transient replicon assay. The RNA transcripts were synthesized in vitro using ScaI-digested DNAs and the T7 MegaScript transcription kit (Ambion) according to the manufacturer's directions. A transient replicon assay was performed to quantify the compound-mediated inhibition of viral translation (Dears et al., J Virol 79:4599-609 (2005)). RNA transcripts were transfected into Huh-7.5 cells by electroporation, as described previously. See, e.g., Blight et al., J Virol 76:13001-14 (2002). A specific concentration of DBPR110 or the control medium was added to each well, and the cells were assayed to determine the luciferase activity at 4 h and 72 h post-transfection. […] For quantification of the compound-mediated inhibition, the relative luciferase activity derived from the mock-treated cells was set to 100% (Zou et al., Virology 384:242-52 (2009)).
To distinguish inhibition of viral translation from inhibition of RNA synthesis, the reduction rate of reporter gene expression level was monitored as an indicator of the inhibitory activity of DBPR110. […] The luciferase activity was monitored several times over a period of 72 hours posttransfection. […] The luciferase activity was measured at 4, 8, 24, 48, and 72 hours posttransfection.

[2] = system: HCV genotype 1b Con1 replicon cells; assay: Isolation of resistant replicons, genotype 1b; assay type: cell-based, Hepatitis C virus
Experimental: Selection of resistant replicon cells was performed by growing HCV genotype 1b Con1 and 2a JFH1 replicon cells in medium containing 0.2 or 200 nM and 60 nM or 1 μM of DBPR110, respectively. Medium containing the compound was added to monolayers of HCV1b-neo replicon cells at ˜25% confluence in the presence of 0.2 to 0.4 mg/mL of G418. Replicon cells maintained in the presence of dimethyl sulfoxide (DMSO) were used as a control. After 40 days, total RNA was isolated from both the control replicon cells and homogeneous cell lines containing compound using the TRIzol reagent (Invitrogen, Carlsbad, Calif.) according to the manufacturer's protocol. The RNA was amplified by reverse transcription-PCR (RT-PCR).
To characterize the resistance profile of DBPR110, cell clones resistant to DBPR110 were obtained by culturing HCV genotype 1b replicon cells in the presence of G418 and increasing concentrations of DBPR110 ranging from 50- to 50,000-fold the EC50 value.

Cytotoxicity assay (MTT) = assay type: cell-based; conditions: human, read-out: CC50
Experimental: (4) Cytotoxicity assay. The sensitivity of the cell lines to inhibitors was examined using a 3-(4,5-Dimethylthiazol-2-yl)-2,5-diphenyltetrazolium bromide (MTT) assay. Briefly, Huh-7.5 cells were plated at a density of 1×10^5 cells per well in 12-well plates containing 1 mL of culture medium for 4 h. Serial dilutions of the compounds or DMSO (negative control) were added, and the plates were incubated for an additional 72 h. The MTT reagent was then added to each well, and the plates were incubated for 3 h at 37° C. in a humidified 5% CO2 atmosphere before reading at a wavelength of 563 nm using an ELISA plate reader. All data are presented as the means +/−SD from four independent experiments.

HCV1b replicon = assay: Serum shift assay; assay type: cell-based, Hepatitis C virus; conditions: for EC90 / EC50: Hepatitis C virus; for EC50: read-out: E50
Experimental: (9) Serum shift assay. In the serum shift assay, the inhibitory activity of DBPR110 was determined using replicon 1b in the presence of 10, 20, 30, 40 or 50% fetal bovine serum, or 10 or 40% of extracellular normal human serum.

[3] = system: HCV genotype 1b replicon (Con1); assay: Inhibitory assay for HCV replicons (luciferase), genotype 1b Con1; assay type: cell-based, Hepatitis C virus
Experimental: (2) Cell culture and HCV inhibitors. Huh-7.5 cells and their derivative HCV replicon cell lines were maintained in Dulbecco's modified Eagle's medium (DMEM, Gibco/BRL) that was supplemented with 100 U/mL penicillin-streptomycin (Gibco/BRL), 0.1 mM nonessential amino acid (NEAA, Gibco/BRL) and 10% fetal bovine serum (FBS) heat inactivated at 37° C. in 5% CO2. The HCV replicon cell lines were isolated from colonies as described in Lohman et al., Science 285:110-3 (1999). The culture medium for the replicon cells was additionally supplemented with 0.25 to 0.5 mg/mL of G418, unless specified otherwise. Compound DBPR110 and sofosbuvir were synthesized at the Institute of Biotechnology and Pharmaceutical Research at the National Health Research Institutes in Taiwan. Telaprevir (Lin et al., Antimicrob Agents Chemother, 50:1813-22 (2006)) was purchased from Acme Biosciences (Belmont, Calif.). The compounds were stored at −20° C. as 10 to 500 mM dimethyl sulfoxide (DMSO) stock solutions until the assay. IFN-α was purchased from Calbiochem (La Jolla, Calif.) and stored at −80° C.
(3) Inhibitory assay for HCV replicons. Cells were seeded at 1×10^4 (high-throughput screening assay) or 1×10^5 (regular assay) cells/well in 96- or 12-well plate, respectively, and incubated for 4 h. The medium was then aspirated and replaced with 0.1 (96-well plate) or 1 (12-well plate) mL of complete medium containing a single compound or combinations of compounds in serial concentration(s). The plates with compounds were incubated for 72 h and then assayed for luciferase expression (Promega). The EC50 of each compound was determined independently and used to determine the range of concentrations used for the combination experiments. All data are presented as the means±standard deviations (SD) from three independent experiments. The selectivity index (SI) was calculated as the ratio of the CC50 to the EC50.

HCV genotype 1b replicon = assay: Inhibitor combination study (combination index, CalcuSyn); conditions: at the concentrations used in the combination experiments

O=C(N[C@@H](C(=O)N1CCC[C@H]1c1ncc(-c2ccc(-c3ccc(-c4cnc([C@@H]5CCCN5C(=O)[C@H](NC(=O)C5CC5)c5ccccc5)s4)cc3)cc2)s1)c1ccccc1)C1CC1 [DBPR110]
effect on the Rluc signals ([1]; 4 and 8 hours posttransfection (viral translation)): minimal effect | effect on the Rluc signals ([1]; 24, 48, and 72 hours posttransfection (RNA replication), P<0.001): significantly reduced | fold more resistant than parental cells ([2]; DBPR110-resistant cells (DBPR110R), genotype 1b): greater than 14,000 fold | EC50 ([2]; Hepatitis C virus): > 55 nM | CC50 at 72 h (Cytotoxicity assay (MTT); Genotype 2a, JFH1): > 50000 nM | CC50 at 72 h (Cytotoxicity assay (MTT); HCV-1b replicon cell lines, single agent): > 50 nM | CC50 at 72 h (Cytotoxicity assay (MTT); Huh-7.5 cells, Genotype 1b, Con1): > 50000 nM | CC50 at 72 h (Cytotoxicity assay (MTT); Infectious HCV, Genotype 2a, JFH1): > 50000 nM | Shift fold (EC50) (HCV1b replicon; 10% FBS): 1.0 fold | Shift fold (EC90) (HCV1b replicon; 10% FBS): 1.0 fold | Shift fold (EC50) (HCV1b replicon; 10% NHS (normal human serum)): 1.0 fold | Shift fold (EC90) (HCV1b replicon; 10% NHS (normal human serum)): 1.0 fold | Shift fold (EC50) (HCV1b replicon; 20% FBS): 1.9 fold | Shift fold (EC90) (HCV1b replicon; 20% FBS): 2.6 fold | Shift fold (EC50) (HCV1b replicon; 30% FBS): 1.8 fold | Shift fold (EC90) (HCV1b replicon; 30% FBS): 2.3 fold | Shift fold (EC50) (HCV1b replicon; 40% FBS): 3.1 fold | Shift fold (EC90) (HCV1b replicon; 40% FBS): 3.8 fold | Shift fold (EC50) (HCV1b replicon; 40% NHS (normal human serum)): 6.3 fold | Shift fold (EC90) (HCV1b replicon; 40% NHS (normal human serum)): 14.1 fold | Shift fold (EC50) (HCV1b replicon; 50% FBS): 5.0 fold | Shift fold (EC90) (HCV1b replicon; 50% FBS): 4.5 fold | EC90 (HCV1b replicon; 10% FBS): 0.0093 ± 0.0034 nM | EC50 (HCV1b replicon; 10% FBS): 0.0043 ± 0.0008 nM | EC90 (HCV1b replicon; 10% NHS (normal human serum)): 0.0416 ± 0.0013 nM | EC50 (HCV1b replicon; 10% NHS (normal human serum)): 0.0335 ± 0.0004 nM | EC90 (HCV1b replicon; 20% FBS): 0.0238 ± 0.011 nM | EC50 (HCV1b replicon; 20% FBS): 0.0081 ± 0.0016 nM | EC90 (HCV1b replicon; 30% FBS): 0.0216 ± 0.017 nM | EC50 (HCV1b replicon; 30% FBS): 0.0079 ± 0.0009 nM | EC90 (HCV1b replicon; 40% FBS): 0.0351 ± 0.0074 nM | EC50 (HCV1b replicon; 40% FBS): 0.0132 ± 0.0017 nM | EC90 (HCV1b replicon; 40% NHS (normal human serum)): 0.588 ± 0.0459 nM | EC50 (HCV1b replicon; 40% NHS (normal human serum)): 0.211 ± 0.0063 nM | EC90 (HCV1b replicon; 50% FBS): 0.0419 ± 0.0072 nM | EC50 (HCV1b replicon; 50% FBS): 0.0215 ± 0.01 nM | EC50 ([3]; Hepatitis C virus, HCV-1b replicon cell lines, single agent, combination study system, read-out: EC50): 0.0033 ± 0.0008 nM | EC50 ([3]; Hepatitis C virus, parental genotype 1b replicon cells, read-out: EC50): 0.0039 nM | EC50 ([3]; Hepatitis C virus, Genotype 1b, Con1 replicon cell line, read-out: Luciferase activity assay EC50): 0.0039 nM | EC90 ([3]; Hepatitis C virus, Genotype 1b, Con1 replicon cell line, read-out: Luciferase activity assay EC90): 0.0082 ± 0.0018 nM | susceptibility of genotype 1b greater than that of genotype 2a replicon cells ([3]; genotype 1b vs genotype 2a replicon cells): 74 fold | cytotoxicity (HCV genotype 1b replicon): No cytotoxicity was observed
